Measured values as given in US10344019B2 (priority 2010, dated 2019).
Read-outs that look alike come from different tables or passages of the source.

How the values were obtained:
Experiment in all cases: microbe, parasite or virus in culture
Assay type in all cases: cell-based
[1] = test system: HCV 1b RLuc cells (dicistronic genotype 1b Con1 replicon, RLuc reporter); details: Hepatitis C virus, read-out: 1b (nM)
Outline: (§1)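 Renilla luciferase HCV replicon cells: dicistronic 1b Con1, 1a H77 or 2a JFH-1 replicons, or a JFH-1 chimera carrying J6 NS5A (M31 present). Compound in DMSO serial dilutions, 72 h incubation, then lysis and luciferase read. EC50 by non-linear regression.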

[2] = test system: HCV 2a JFH-1 Rluc cells (dicistronic genotype 2a JFH-1 replicon, RLuc reporter); details: Hepatitis C virus, genotype 2a JFH-1 replicon, read-out: 2a JFH
Outline: as §1

[3] = test system: HCV 4a Rluc cells (NS5A chimeric genotype 1b Con1 replicon with genotype 4a NS5A gene); details: Hepatitis C virus, read-out: 4a
Outline: (§2)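 Replicon cells stably carrying the listed RLuc-encoding dicistronic replicons were seeded and treated with DMSO serial dilutions of compound (10 mM stocks) diluted into culture medium. After 72 h, cells were lysed and Renilla luciferase activity measured. EC50 was derived by non-linear regression.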

[4] = test system: HCV 3a RLuc cells (NS5A chimeric genotype 1b Con1 replicon with consensus genotype 3a NS5A gene); details: Hepatitis C virus
Outline: as §2

[5] = test system: HCV 1a RLuc cells (dicistronic genotype 1a H77 replicon, RLuc reporter); details: Hepatitis C virus, read-out: 1a
Outline: as §1

[6] = read-out: 3a, Table 2, genotype 3a NS5A chimeric replicon
[7] = 72 h, Table 2, genotype 1a H77 replicon, 72 hours
[8] = read-out: 3a, genotype 3a replicon
[9] = read-out: 3a, genotype 3a NS5A chimeric 1b Con1 replicon
[10] = genotype 1a H77 replicon, RLuc reporter

Structure (SMILES) | EC50 ([1]; 72 h) [nM] | EC50 ([2]; 72 h, Table 2, 72 hours) [nM] | EC50 [3] [nM] | EC50 [4, 6] [nM] | EC50 [5, 7] [nM] | EC50 [1] [nM] | EC50 [2] [nM] | EC50 [4, 8] [nM] | EC50 ([5]; genotype 1a replicon) [nM] | EC50 ([2]; RLuc reporter) [nM] | EC50 [4, 9] [nM] | EC50 [5, 10] [nM]
COC(=O)N[C@H](C(=O)N1CCC[C@H]1c1ncc(-c2ccc3c(c2)C(F)(F)c2cc(-c4ccc5nc([C@@H]6[C@H]7CC[C@H](C7)N6C(=O)[C@H](NC(=O)OC)c6ccccc6)[nH]c5c4)ccc2-3)[nH]1)C1CCOCC1 [Example 56] | 0.01 | 0.001 to 0.999 | 0.001 to 0.99 | 0.001 to 0.99 | 0.001 to 0.999 |  |  |  |  |  |  | 
COC(=O)N[C@H](C(=O)N1[C@@H]2C[C@@H]2C[C@H]1c1nc2ccc3cc(-c4ccc(-c5cnc([C@@H]6[C@H]7CC[C@H](C7)N6C(=O)[C@@H](NC(=O)OC)[C@@H](C)OC)[nH]5)cc4)ccc3c2[nH]1)C(C)C [Example 336] |  |  | 0.001 to 0.99 |  |  | 0.013 | 0.001 to 0.999 | 1 to 4.99 | 0.001 to 0.999 |  |  | 
COC(=O)N[C@H](C(=O)N1CCC[C@H]1c1ncc(-c2ccc3c(c2)C(F)(F)c2cc(-c4ccc5nc([C@@H]6CCCN6C(=O)[C@H](NC(=O)OC)c6ccccc6)[nH]c5c4)ccc2-3)[nH]1)C(C)C [Example 258] |  |  | 0.001 to 0.99 |  |  | 0.005 |  |  |  | 0.001 to 0.999 | 0.001 to 0.99 | 0.001 to 0.999
COC(=O)N[C@H](C(=O)N1CCC[C@H]1c1ncc(-c2ccc3c(c2)cc(C#N)c2cc(-c4cnc([C@@H]5CCCN5C(=O)[C@@H](NC(=O)OC)C(C)C)[nH]4)ccc23)[nH]1)C(C)C [Example 274] |  |  | 0.001 to 0.99 |  |  | 0.011 |  |  |  | 1 to 44 | 1 to 4.99 | 1 to 44
CC#Cc1cc(-c2cnc([C@@H]3[C@H]4CC[C@H](C4)N3C(=O)[C@@H](NC(=O)OC)C(C)C)[nH]2)ccc1-c1ccc(-c2cnc([C@@H]3CCCN3C(=O)[C@@H](NC(=O)OC)C(C)C)[nH]2)cc1 [Example 329] |  |  | 0.001 to 0.99 |  |  | 0.008 | 0.001 to 0.999 | 1 to 4.99 | 0.001 to 0.999 |  |  | 
COC(=O)N[C@H](C(=O)N1CCC[C@H]1c1ncc(-c2ccc3c(c2)COc2c-3ccc(-c3cnc([C@@H]4CCCN4C(=O)[C@@H](NC(=O)OC)C(C)C)[nH]3)c2F)[nH]1)C(C)C [Example 308] |  |  | 0.001 to 0.99 |  |  | 0.008 | 0.001 to 0.999 | 0.001 to 0.99 | 0.001 to 0.999 |  |  | 
COC(=O)N[C@H](C(=O)N1CCC[C@H]1c1ncc(-c2ccc3cc(-c4ccc(-c5cnc([C@@H]6[C@H]7CC[C@H](C7)N6C(=O)[C@H](NC(=O)OC)c6ccccc6)[nH]5)cc4)ccc3c2)[nH]1)C(C)C [Example 48] | 0.007 | 1 to 44 | 0.001 to 0.99 | 1 to 4.99 | 0.001 to 0.999 |  |  |  |  |  |  | 
COC(=O)N[C@H](C(=O)N1CCC[C@H]1c1ncc(-c2ccc3cc(-c4ccc(-c5cnc([C@@H]6CCCN6C(=O)[C@@H](NC(=O)OC)[C@H](C)OC)[nH]5)cc4)ccc3c2)[nH]1)C(C)C [Example 241] |  |  | 0.001 to 0.99 |  |  | 0.011 |  |  |  | 1 to 44 | 1 to 4.99 | 0.001 to 0.999
COC(=O)N[C@H](C(=O)N1CCC[C@H]1c1nc2ccc3cc(-c4ccc(-c5cnc([C@@H]6[C@H]7CC[C@H](C7)N6C(=O)[C@@H](NC(=O)OC)C6CCOCC6)[nH]5)c(F)c4)ccc3c2[nH]1)C(C)C [Example 305] |  |  | 0.001 to 0.99 |  |  | 0.017 | 0.001 to 0.999 | 0.001 to 0.99 | 0.001 to 0.999 |  |  | 
COC(=O)N[C@H](C(=O)N1CCC[C@H]1c1ncc(-c2ccc3c(c2)CCc2cc(-c4cnc([C@@H]5[C@H]6CC[C@H](C6)N5C(=O)[C@@H](NC(=O)OC)C5CCOCC5)[nH]4)ccc2-3)[nH]1)C(C)C [Example 92] | 0.047 | 0.001 to 0.999 | 0.001 to 0.99 | 0.001 to 0.99 | 0.001 to 0.999 |  |  |  |  |  |  | 
COC(=O)NC(C(=O)N1CC2(CC2)C[C@H]1c1ncc(-c2ccc3c(c2)C(F)(F)c2cc(-c4ccc(-c5cnc([C@@H]6CCCN6C(=O)[C@@H](NC(=O)OC)C6CCOCC6)[nH]5)cc4)ccc2-3)[nH]1)C(C)C (stereo partly shown) [Example 207] |  |  | 0.001 to 0.99 |  |  | 0.017 |  |  |  | 1 to 44 | > 5 | 0.001 to 0.999
COC(=O)N[C@H](C(=O)N1CCC[C@H]1c1ncc(-c2ccc(-c3ccc(-c4ccc5cc(-c6cnc([C@@H]7CCCN7C(=O)[C@H](NC(=O)OC)c7ccccc7)[nH]6)ccc5c4)cc3)cc2)[nH]1)C(C)C [Example 197] |  |  | 0.001 to 0.99 |  |  | 0.01 |  |  |  | 1 to 44 | 0.001 to 0.99 | 1 to 44
COC(=O)N[C@H](C(=O)N1CCC[C@H]1c1ncc(-c2ccc3cc(-c4ccc5c(ccc6nc([C@@H]7[C@H]8CC[C@H](C8)N7C(=O)[C@H](NC(=O)OC)c7ccccc7)[nH]c65)c4)ccc3c2)[nH]1)C1CCOCC1 [Example 327] |  |  | 0.001 to 0.99 |  |  | 0.011 | 0.001 to 0.999 | 0.001 to 0.99 | 0.001 to 0.999 |  |  | 
COC(=O)N[C@H](C(=O)N1[C@@H]2CC[C@@H](C2)[C@H]1c1nc2ccc3cc(-c4ccc(-c5cnc([C@@H]6C[C@H]7C[C@H]7N6C(=O)[C@@H](NC(=O)OC)C6CCOCC6)[nH]5)cc4)ccc3c2[nH]1)C(C)C [Example 367] |  |  | 0.001 to 0.99 |  |  | 0.049 | 0.001 to 0.999 | 0.001 to 0.99 | 0.001 to 0.999 |  |  | 
COC(=O)NC(C(=O)N1CCC[C@H]1c1ncc(-c2ccc3c(c2)C(F)(F)c2cc(-c4ccc5nc([C@@H]6CCCN6C(=O)[C@@H](NC(=O)OC)[C@@H](C)OC)[nH]c5c4)ccc2-3)[nH]1)C(C)C (stereo partly shown) [Example 264] |  |  | 0.001 to 0.99 |  |  | 0.006 |  |  |  | 1 to 44 | 1 to 4.99 | 0.001 to 0.999
COC(=O)N[C@H](C(=O)N1c2ccccc2C[C@H]1c1ncc(-c2ccc(-c3ccc(-c4cnc([C@@H]5Cc6ccccc6N5C(=O)[C@@H](NC(=O)OC)C(C)C)[nH]4)cc3)cc2)[nH]1)C(C)C [Example 267] |  |  | 0.001 to 0.99 |  |  | 0.045 |  |  |  | > 44 | > 5 | 1 to 44
CCN(C(=O)OC)[C@@H](C(=O)N1CCC[C@H]1c1ncc(-c2ccc(-c3ccc4cc(-c5cnc([C@@H]6CCCN6C(=O)[C@@H](NC(=O)OC)C(C)C)[nH]5)ccc4c3)cc2)[nH]1)c1ccccc1 [Example 203] |  |  | 0.001 to 0.99 |  |  | 0.124 |  |  |  | 1 to 44 | > 5 | > 44
COC(=O)N[C@H](C(=O)N1CCC[C@H]1c1nc2ccc3cc(-c4ccc(-c5cnc([C@@H]6[C@H]7CC[C@H](C7)N6C(=O)[C@@H](NC(=O)OC)C6CCOCC6)[nH]5)cc4)ccc3c2[nH]1)C(C)C [Example 62] | 0.034 | 0.001 to 0.999 | 0.001 to 0.99 | 0.001 to 0.99 | 0.001 to 0.999 |  |  |  |  |  |  | 
COC(=O)N[C@H](C(=O)N1CC2(C[C@@H]1c1nc(-c3ccc4c(c3)C(F)(F)c3cc(-c5ccc6nc([C@@H]7CCCN7C(=O)[C@H](NC(=O)OC)c7ccccc7)[nH]c6c5)ccc3-4)c[nH]1)OCCO2)C(C)C [Example 46] | 0.007 | 0.001 to 0.999 | 0.001 to 0.99 | 1 to 4.99 | 0.001 to 0.999 |  |  |  |  |  |  | 
CCN(CC)C(C(=O)N1CCC[C@H]1c1ncc(-c2ccc(-c3ccc4c(c3)C(F)(F)c3cc(-c5cnc([C@@H]6CCCN6C(=O)C(NC(=O)OC)C(C)C)[nH]5)ccc3-4)cc2)[nH]1)c1ccccc1 (stereo partly shown) [Example 200] |  |  | 0.001 to 0.99 |  |  | 0.009 |  |  |  | 1 to 44 | 1 to 4.99 | 1 to 44
